Test results as given in patent US20250171776A1, “NON-CANONICAL CELL-PENETRATING PEPTIDES FOR ANTISENSE OLIGOMER DELIVERY” (priority 2023, published 2025).
Where no end group is shown, it is not given here. [ ]: non-standard residue; d: D form. Cit = NC(=O)NCCC[C@H](N)C(=O)O; Api = NC1(C(=O)O)CCNCC1; Dab = NCC[C@H](N)C(=O)O; Iph = iodophenylalanine

Tested on: HELA-654 cells
Experiment: Hela-654 eGFP assay (incucyte imaging, GFP positive cells, 72 h)
Format: cell-based
Details: 72 h, read-out: EC50 (at 72 h)
Procedure: HELA-654 cells were imaged at 72 hours with an incucyte and the number of GFP positive cells versus total cell counts were calculated with the incucyte image analysis software. Statistical analysis was conducted using a one-way analysis of variance (ANOVA) test with Dunnett's multiple comparison test. Bars represent mean±standard deviation (SD), with P<0.05 was considered to indicate statistical significance, (**** p<0.0001, *** […], ** p<0.01, * p<0.05).
HELA-654 cells were imaged at 72 hours with an incucyte and the number of GFP positive cells versus total cell counts were calculated with the incucyte image analysis software.

Q: Which EC50 does the source give for “Dab-Pro-Arg-Dab-Leu-His-Ser-Dab-Ala-Thr-Lys-Trp-Lys-Lys ([Dab]PR[Dab]LHS[Dab]ATKWKK; also: PMO conjugate) [PMO-CXP5]” here?
A: The EC50 was 10 µM.

Q: How did the EC50 turn out when “GCTATTACCTTAACCCAG (all phosphorodiamidate morpholino (PMO)) [reference compound]” was run?
A: Its EC50 is 22.7 µM.

Same assay, conditions: CXP1 Dab analogs, 72 h, read-out: EC50 (at 72 h)

Q: Which EC50 does the source give for “Dab-Gln-Dab-Thr-Ser-Iph-Gly-Arg-Gly-Dab-Dab-Trp-Dab-Dab-Lys-Trp-Lys-Lys ([Dab]Q[Dab]TS[Iph]GRG[Dab][Dab]W[Dab][Dab]KWKK; also: PMO conjugate) [PMO-CXP1AE]” here?
A: The EC50 was 6.38 µM.

Q: Which EC50 does the source give for “Dab-Gln-Dab-Thr-Ser-Iph-Gly-Arg-Gly-Pip-Dab-Trp-Dab-Dab-Lys-Trp-Lys-Lys ([Dab]Q[Dab]TS[Iph]GRG[Api][Dab]W[Dab][Dab]KWKK; also: PMO conjugate) [PMO-CXP1AC]” here?
A: Its EC50 is 4.75 µM.

Q: With “Dab-Gln-Dab-Thr-Ser-Iph-Gly-Dab-Gly-Dab-Dab-Trp-Dab-Dab-Lys-Trp-Lys-Lys [PMO-CXP1AF]” as the substance, how does the EC50 read?
A: Its EC50 is 5.73 µM.

Q: “Dab-Gln-Dab-Thr-Ser-Iph-Gly-Dab-Gly-Pip-Dab-Trp-Dab-Dab-Lys-Trp-Lys-Lys [PMO-CXP1AD]” was tested. Which EC50 did it give?
A: The EC50 was 5.64 µM.

Same assay, conditions: CXP1 analogs (unnatural amino acids replaced), 72 h, read-out: EC50 (72 h)

Q: How did the EC50 turn out when “Lys-Gln-Lys-Thr-Ser-Iph-Gly-Arg-Gly-Lys-Lys-Trp-Lys-Lys (KQKTS[Iph]GRGKKWKK; also: PMO conjugate) [PMO-CXP1Y]” was run?
A: The EC50 was 14.4 µM.

Same assay, conditions: Iph scan, 30 μM of compound, 72 hours

Q: How did the “Percentage of GFP Positive Cells at 72 hours (30 μM)” value (“Percentage … (30 μM)” below) turn out when “Iph-Gln-Lys-Thr-Ser-Iph-Gly-Arg-Gly-Pip-Lys-Trp-Lys-Lys ([Iph]QKTS[Iph]GRG[Api]KWKK; also: PMO conjugate) [PMO-CXP1Q]” was run?
A: The value was 85%.

Q: “Lys-Gln-Iph-Thr-Ser-Iph-Gly-Arg-Gly-Pip-Lys-Trp-Lys-Lys (KQ[Iph]TS[Iph]GRG[Api]KWKK; also: PMO conjugate) [PMO-CXP1R]” was tested. Which “Percentage … (30 μM)” value did it give?
A: Its value is 87.6%.

Q: Which “Percentage … (30 μM)” value does the source give for “Lys-Gln-Lys-Thr-Ser-Iph-Gly-Arg-Gly-Iph-Lys-Trp-Lys-Lys (KQKTS[Iph]GRG[Iph]KWKK; also: PMO conjugate) [PMO-CXP1T]” here?
A: The value was 36.5%.

Q: How did the “Percentage … (30 μM)” value turn out when “Lys-Gln-Lys-Thr-Ser-Iph-Gly-Arg-Gly-Pip-Iph-Trp-Lys-Lys (KQKTS[Iph]GRG[Api][Iph]WKK; also: PMO conjugate) [PMO-CXP1U]” was run?
A: The value was 66.4%.

Q: With “Lys-Gln-Lys-Thr-Ser-Iph-Gly-Arg-Gly-Pip-Lys-Trp-Iph-Lys [PMO-CXP1V]” as the substance, how does the “Percentage … (30 μM)” value read?
A: The value was 86.4%.

Q: How did the “Percentage … (30 μM)” value turn out when “Lys-Gln-Lys-Thr-Ser-Iph-Gly-Arg-Gly-Pip-Lys-Trp-Lys-Iph-Lys-Trp-Lys-Lys (KQKTS[Iph]GRG[Api]KWK[Iph]KWKK; not fully specified (C-terminus); printed as Lys-Gln-Lys-Thr-Ser-Iph-Gly-Arg-Gly-Pip-Lys-Trp-Lys-Iph-Lys-Trp-Lys-Lys; also: PMO conjugate) [PMO-CXP1W]” was run?
A: The value was 94.11%.

Same assay, conditions: alanine scan, 20 μM of PPMO, 72 hours

Q: “Ala-Gln-Lys-Thr-Ser-Iph-Gly-Arg-Gly-Pip-Lys-Trp-Lys-Lys (AQKTS[Iph]GRG[Api]KWKK; also: PMO conjugate) [PMO-CXP1B]” was tested. Which “Percentage of GFP Positive Cells at 72 hours (20 μM)” value (“Percentage … (20 μM)” for short) did it give?
A: The value was 50.5%.

Q: “Lys-Ala-Lys-Thr-Ser-Iph-Gly-Arg-Gly-Pip-Lys-Trp-Lys-Lys (KAKTS[Iph]GRG[Api]KWKK; also: PMO conjugate) [PMO-CXP1C]” was tested. Which “Percentage … (20 μM)” value did it give?
A: Its value is 50.0%.

Q: “Lys-Gln-Ala-Thr-Ser-Iph-Gly-Arg-Gly-Pip-Lys-Trp-Lys-Lys (KQATS[Iph]GRG[Api]KWKK; also: PMO conjugate) [PMO-CXP1D]” was tested. Which “Percentage … (20 μM)” value did it give?
A: Its value is 48.2%.

Q: With “Lys-Gln-Lys-Ala-Ser-Iph-Gly-Arg-Gly-Pip-Lys-Trp-Lys-Lys (KQKAS[Iph]GRG[Api]KWKK; also: PMO conjugate) [PMO-CXP1E]” as the substance, how does the “Percentage … (20 μM)” value read?
A: Its value is 70.5%.

Q: “Lys-Gln-Lys-Thr-Ala-Iph-Gly-Arg-Gly-Pip-Lys-Trp-Lys-Lys (KQKTA[Iph]GRG[Api]KWKK; also: PMO conjugate) [PMO-CXP1F]” was tested. Which “Percentage … (20 μM)” value did it give?
A: Its value is 65.5%.

Q: “Lys-Gln-Lys-Thr-Ser-Ala-Gly-Arg-Gly-Pip-Lys-Trp-Lys-Lys (KQKTSAGRG[Api]KWKK; also: PMO conjugate) [PMO-CXP1G]” was tested. Which “Percentage … (20 μM)” value did it give?
A: The value was 55.8%.

Q: Which “Percentage … (20 μM)” value does the source give for “Lys-Gln-Lys-Thr-Ser-Iph-Ala-Arg-Ala-Pip-Lys-Trp-Lys-Lys (KQKTS[Iph]ARA[Api]KWKK; also: PMO conjugate) [PMO-CXP1P]” here?
A: Its value is 41.6%.

Q: “Lys-Gln-Lys-Thr-Ser-Iph-Ala-Arg-Gly-Pip-Lys-Trp-Lys-Lys (KQKTS[Iph]ARG[Api]KWKK; also: PMO conjugate) [PMO-CXP1H]” was tested. Which “Percentage … (20 μM)” value did it give?
A: The value was 65.5%.

Q: Which “Percentage … (20 μM)” value does the source give for “Lys-Gln-Lys-Thr-Ser-Iph-Gly-Ala-Gly-Pip-Lys-Trp-Lys-Lys (KQKTS[Iph]GAG[Api]KWKK; also: PMO conjugate) [PMO-CXP1I]” here?
A: Its value is 42.0%.

Q: Which “Percentage … (20 μM)” value does the source give for “Lys-Gln-Lys-Thr-Ser-Iph-Gly-Arg-Ala-Pip-Lys-Trp-Lys-Lys (KQKTS[Iph]GRA[Api]KWKK; also: PMO conjugate) [PMO-CXP1J]” here?
A: The value was 53.2%.

Q: “Lys-Gln-Lys-Thr-Ser-Iph-Gly-Arg-Gly-Ala-Lys-Trp-Lys-Lys (KQKTS[Iph]GRGAKWKK; also: PMO conjugate) [PMO-CXP1K]” was tested. Which “Percentage … (20 μM)” value did it give?
A: The value was 39.3%.

Q: For “Lys-Gln-Lys-Thr-Ser-Iph-Gly-Arg-Gly-Pip-Ala-Trp-Lys-Lys (KQKTS[Iph]GRG[Api]AWKK; also: PMO conjugate) [PMO-CXP1L]”, which “Percentage … (20 μM)” value is on record?
A: Its value is 41.8%.

Q: “Lys-Gln-Lys-Thr-Ser-Iph-Gly-Arg-Gly-Pip-Lys-Ala-Lys-Lys (KQKTS[Iph]GRG[Api]KAKK; also: PMO conjugate) [PMO-CXP1M]” was tested. Which “Percentage … (20 μM)” value did it give?
A: The value was 51.0%.

Q: For “Lys-Gln-Lys-Thr-Ser-Iph-Gly-Arg-Gly-Pip-Lys-Trp-Ala-Lys (KQKTS[Iph]GRG[Api]KWAK; not fully specified (C-terminus); printed as Lys-Gln-Lys-Thr-Ser-Iph-Gly-Arg-Gly-Pip-Lys-Trp-Ala-Lys; also: PMO conjugate) [PMO-CXP1N]”, which “Percentage … (20 μM)” value is on record?
A: Its value is 45.4%.

Q: How did the “Percentage … (20 μM)” value turn out when “Lys-Gln-Lys-Thr-Ser-Iph-Gly-Arg-Gly-Pip-Lys-Trp-Lys-Ala-Lys-Trp-Lys-Lys (KQKTS[Iph]GRG[Api]KWKAKWKK; not fully specified (C-terminus); printed as Lys-Gln-Lys-Thr-Ser-Iph-Gly-Arg-Gly-Pip-Lys-Trp-Lys-Ala-Lys-Trp-Lys-Lys; also: PMO conjugate) [PMO-CXP1O]” was run?
A: Its value is 39.2%.

Same assay, conditions: chimeric peptide PMO conjugates, 72 h, read-out: EC50 (at 72 h)

Q: Which EC50 does the source give for “Cit-Met-Phe-Gly-Pip-Dab-Dab-Lys-Ala-Pro-Lys-Trp-Lys-Lys-Gly-Lys-Gln-Lys-Thr-Ser-Iph-Gly-Arg-Gly-Pip-Lys-Trp-Lys-Lys ([Cit]MFG[Api][Dab][Dab]KAPKWKKGKQKTS[Iph]GRG[Api]KWKK; also: PMO conjugate) [PMO-CXP4-CXP1]” here?
A: The EC50 was 59.2 µM.

Q: With “Dab-Val-Ala-Arg-Asn-Asn-Dab-Thr-Lys-Gly-Lys-Trp-Lys-Lys-Gly-Lys-Gln-Lys-Thr-Ser-Iph-Gly-Arg-Gly-Pip-Lys-Trp-Lys-Lys [PMO-CXP3-CXP1]” as the substance, how does the EC50 read?
A: The EC50 was 0.026 µM.
